How the values were obtained:
[1] = system: peripheral blood mononuclear cells (PBMC); assay: Peripheral blood mononuclear cell proliferation, whole blood, cats; format: in vivo, Tabby cats
Procedure: Whole blood was used to analyze the mitogenic proliferative responsiveness of peripheral blood mononuclear cells (PBMC) to phytohemagglutinin (PHA), Con A and pokeweed mitogen (PWM) in order to mimic in vivo conditions. Heparinized whole blood was diluted 1:12 with RPMI-1640 containing 25 mM of Hepes, penicillin (100 U/mL) and streptomycin (100 μg/mL) (Sigma, St. Louis, Mo.) (hereafter termed complete medium). […] The mitogens were used at the following final concentrations previously determined to provide both maximal (the higher mitogen concentration) and suboptimal (the lower mitogen concentration) proliferation: PHA (1.25 and 0.25 μg/mL), Con A (2.5 and 0.5 μg/mL) or PWM (0.125 and 0.025 μg/mL). Tritiated thymidine uptake was measured by liquid scintillation and PBMC proliferation response was expressed as cpm of stimulated cultures corrected for cpm of unstimulated cultures.

[2] = system: lymphocyte subsets (CD5, CD4, CD8, MHC class II, CD21); assay: Lymphocyte subsets by flow cytometry, dogs; format: in vivo, Beagle dogs
Procedure: Blood leukocytes were separated using Histopaque-1119 (Sigma, St. Louis, Mo.). Cells were washed three times with phosphate-buffered saline (PBS, pH 7.4) and contaminating erythrocytes were lysed in NH4CI (8.4 g/L). Lymphocyte subsets were determined by flow cytometry (FACScan, Becton Dickinson, San Jose, Calif.). Isolated mononuclear cells were resuspended to 1×10^7 cells/mL in PBS supplemented with 2% gamma globulin-free serum, 5% goat serum and 0.2 g/L sodium azide. For immunofluorescence analysis, a total of 5×10^5 cells were incubated for 30 minutes on ice with optimal concentrations of mouse anti-canine monoclonal antibody (mAb). The mAb used were specific for the following lymphocyte subsets: total T cells (anti-CD5), T-helper cells (anti-CD4), T-cytotoxic/suppressor cells (anti-CD8), lymphocytes expressing major histocompatability complex (MHQ class II antigens (anti-MHC class II), and B cells (anti-CD21). Cells were then washed three times and incubated with a secondary antibody, fluorescein isothiocyanate (FITC)-conjugated goat F(ab′)2 anti-mouse IgG+IgM (H+L) (Caltag, Burlingame, Calif.), for 30 minutes on ice to visualize the bound mAb. Stained cells were fixed in 4% paraformaldehyde in preparation for acquisition. Appropriate negative controls were included to correct for background fluorescence. Data were expressed as the percentage of positive-staining cells corrected for cells stained nonspecifically with the secondary antibody.

[3] = design: species or system Tabby cats; details: in vivo
Procedure: Blood was collected by jugular venipuncture into heparinized evacuated tubes on weeks 0, 2, 4, 8 and 12 and aliquots used for HPLC analysis and for assessing immune responses.
Plasma lutein, retinol and α-tocopherol were analyzed by reverse phase HPLC. Briefly, plasma protein was precipitated with an equal volume of ethanol containing 0.1% butylated hydroxytoluene (BHT) (Aldrich Chemical Co., Milwaukee, Wis.). The mixture was extracted with 5 mi of a 1:1 mixture of petroleum ether:anhydrous diethyl ether and the dried residue resuspended in mobile phase. The mobile phase was a mixture of acetonitrile, methanol and chloroform (47:47:6, v/v/v). The internal standard used was retinyl acetate (Sigma Chem. Co., St. Louis, Mo.). Samples were eluted on a 5 μm C18 reverse phase column (3.9×150 mm; Resolve, Millipore Corp., Milford Mass.) with a flow rate of 1.0 ml/min. The identity of the eluted compounds was verified by comparing their absorption spectra with those of standard compounds.

IgG = assay: Serum IgG by single radial immunodiffusion, cats; format: in vivo, Tabby cats
Procedure: Serum IgG concentration was determined by single radial immunodiffusion (SRID). Goat antiserum to cat IgG (15%, whole molecule) (Sigma, St. Louis, Mo.) was incorporated into agarose (10 g/L in PBS; Sigma, St. Louis, Mo.). The loading volume for the test serum and standard was 5 μL and the plates were incubated for 24 hours in a humidified chamber. Ring diameters were measured using a SRID reader (Transidyne General Corp., Ann Arbor, Mich.).

[4] = Stability of lutein in prepared cat food; format: physicochemical; details: diets mixed weekly, stored at −20° C. in sealed containers under nitrogen gas, analyzed periodically
Procedure: Prior to being fed to the cats, the lutein-containing diet was mixed with additional basal diet to achieve the desired lutein concentration. The final diets were mixed weekly and stored at −20° C. in sealed containers undernitrogen gas. […] Food and water were available ad libitum. Cats were housed (7 cats/pen; 1.5×5.0 m) in a temperature (20 to 22° C.) and light (14 h light) controlled facility.

[5] = system: Crandell feline kidney fibroblast; assay: NK cytotoxicity assay, cats; format: in vivo, Tabby cats
Procedure: The Crandell feline kidney fibroblast was used as the target cell. Target cells were resuspended to 2×10^5 cells/mL and triplicate 100 μL aliquots were pipetted into a 96-well U-bottom plate (Costar, Cambridge, Mass.) and cells allowed to adhere. Isolated PBMC (effector cells) were then added to the target cells to achieve effector:target cell (E:T) ratios of 25:1, 12.5:1 and 6.25:1. The cell mixture was incubated for 8 hours after which 100 μL Rose Bengal (2.5 g/L in PBS; Sigma, St. Louis, Mo.) were added and incubated at room temperature for 5 minutes. Optical density was measured at 550 nm using an ELISA plate reader. The percentage of NK-specific lysis was calculated as follows:
Specific cytotoxicity (%)=100×{1−[(OD of target cells and effector cells−OD of effector cells)/(OD of target cells)]}

IL-2 = IL-2 production in Con A-stimulated whole blood cultures, cats; format: in vivo, Tabby cats
Procedure: Whole blood was diluted 1:2 in RPMI-1640 complete medium and cultured for 48 hours in the presence of 5 μg/mL Con A. The conditioned medium was removed and frozen at −80° C. The IL-2 concentrations were determined in duplicate by ELISA using a human IL-2 kit (Intergen, Purchase, N.Y). The human anti-IL-2 was previously determined to cross-react with feline IL-2.

CC1=C[C@H](O)CC(C)(C)[C@H]1/C=C/C(C)=C/C=C/C(C)=C/C=C/C=C(C)/C=C/C=C(C)/C=C/C1=C(C)C[C@@H](O)CC1(C)C [lutein]
Spontaneous proliferation by unstimulated PBMC ([1]; cats): did not significantly influence
PWM-stimulated PBMC proliferation (increased) ([1]; cats fed 1 mg lutein, week 4, 0.025 μg/mL PWM): differences were significant
PBMC proliferative response to Con A ([1]; cats fed 10 mg lutein, Con A 2.5 μg/mL, week 4): significantly higher
PWM-stimulated PBMC proliferation (increased) ([1]; cats fed 1 and 10 mg lutein, week 4, 0.125 μg/mL PWM): differences were significant
Tritiated thymidine uptake, average ([1]; cats, 0.25 μg/mL PHA): 1,934±147 cpm
Tritiated thymidine uptake, average ([1]; cats, 1.25 μg/mL PHA): 6,464±504 cpm
PBMC proliferative response to Con A ([1]; cats, Con A 2.5 μg/mL, week 8 and 12): treatment differences were not observed
PBMC proliferative response to Con A ([1]; cats, suboptimal dose (0.5 μg/mL) of Con A): No significant treatment difference
PHA-induced PBMC proliferation ([1]; cats, throughout the study): no significant dietary effects
Spontaneous proliferation by unstimulated PBMC, average ([1]; cats, throughout the study): 1,744±147 cpm
CD21+ B cell population ([2]; dogs): did not significantly influence
% CD8+ T cytotoxic cells vs control ([2]; dogs fed 20 mg lutein, week 8): significantly higher
% MHC class II cell populations vs unsupplemented dogs ([2]; dogs fed 20 mg lutein, week 8 and 12): elevated
% CD4+ cells ([2]; dogs fed 5 and 10 mg lutein, week 12): higher
CD8+ population ([2]; dogs, week 12): not influenced
Percentages of CD5+ cells vs unsupplemented controls ([2]; dogs, weeks 4 and 8, statistically significant with 5 and 20 mg lutein): higher
Plasma lutein [3]: increased in a dose-dependent manner
Plasma IgG vs unsupplemented animals (IgG; cats fed 10 mg lutein, week 12): significantly higher
Concentrations of plasma IgG (IgG; cats fed 1 or 10 mg lutein, week 8): significantly higher
Destruction of lutein in prepared food [4]: no significant destruction
NK cell cytotoxicity ([5]; cats fed 1 mg lutein, week 12 (E:T of 6.25:1) and 8 (E:T of 25:1)): significantly higher
NK cell cytotoxic activity ([5]; cats fed 10 mg lutein, week 8, significant with E:T ratios of 6.25:1 and 25:1): higher
NK cell cytotoxicity ([5]; cats, E:T ratio of 12.5:1): No significant treatment differences
IL-2 production (IL-2; throughout the experimental period): no significant differences
Average concentration of IL-2 in Con A-stimulated cultures (IL-2; throughout the study): 15.1 ± 0.79 ng/mL
